# Source: PubChem BioAssay (NCI)
#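 Results reflect a 48-hour exposure of cells in 96-well plates to compound at five concentrations. GI50 = concentration required for 50% inhibition of growth. TGI: total growth inhibition.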
# How the values were obtained:
# Assay in all cases: NCI tumour cell line growth inhibition, 48 h
# A498 renal = system: A498 renal
# A549 NSCLC = system: A549 NSCLC
# ACHN renal = system: ACHN renal
# BT-549 breast = system: BT-549 breast
# CAKI-1 renal = system: CAKI-1 renal
# CCRF-CEM leukemia = system: CCRF-CEM leukemia
# COLO 205 colon = system: COLO 205 colon
# DU-145 prostate = system: DU-145 prostate
# EKVX NSCLC = system: EKVX NSCLC
# HCC-2998 colon = system: HCC-2998 colon
# HCT-15 colon = system: HCT-15 colon
# HL-60(TB) leukemia = system: HL-60(TB) leukemia
# HOP-92 NSCLC = system: HOP-92 NSCLC
# HS 578T breast = system: HS 578T breast
# HT29 colon = system: HT29 colon
# IGROV1 ovarian = system: IGROV1 ovarian
# K-562 leukemia = system: K-562 leukemia
# KM12 colon = system: KM12 colon
# LOX IMVI melanoma = system: LOX IMVI melanoma
# MALME-3M melanoma = system: MALME-3M melanoma
# MCF7 breast = system: MCF7 breast
# MDA-MB-231 breast = system: MDA-MB-231 breast
# MDA-MB-435 = system: MDA-MB-435
# MOLT-4 leukemia = system: MOLT-4 leukemia
# NCI-H226 lung = system: NCI-H226 lung
# NCI-H23 lung = system: NCI-H23 lung
# NCI-H460 lung = system: NCI-H460 lung
# NCI/ADR-RES ovarian = system: NCI/ADR-RES ovarian
# OVCAR-3 ovarian = system: OVCAR-3 ovarian
# OVCAR-4 ovarian = system: OVCAR-4 ovarian
# OVCAR-5 ovarian = system: OVCAR-5 ovarian
# OVCAR-8 ovarian = system: OVCAR-8 ovarian
# RXF 393 renal = system: RXF 393 renal
# SF-268 CNS = system: SF-268 CNS
# SF-539 CNS = system: SF-539 CNS
# SK-MEL-2 melanoma = system: SK-MEL-2 melanoma
# SK-MEL-28 melanoma = system: SK-MEL-28 melanoma
# SK-MEL-5 melanoma = system: SK-MEL-5 melanoma
# SK-OV-3 ovarian = system: SK-OV-3 ovarian
# SN12C renal = system: SN12C renal
# SNB-19 CNS = system: SNB-19 CNS
# SNB-75 CNS = system: SNB-75 CNS
# SR leukemia = system: SR leukemia
# SW-620 colon = system: SW-620 colon
# T-47D breast = system: T-47D breast
# TK-10 renal = system: TK-10 renal
# U251 CNS = system: U251 CNS
# UACC-257 melanoma = system: UACC-257 melanoma
# UACC-62 melanoma = system: UACC-62 melanoma
# UO-31 renal = system: UO-31 renal
# 786-0 renal = system: 786-0 renal
# HCT-116 colon = system: HCT-116 colon
# M14 melanoma = system: M14 melanoma
# NCI-H522 lung = system: NCI-H522 lung
# PC-3 prostate = system: PC-3 prostate
# RPMI-8226 leukemia = system: RPMI-8226 leukemia
# SF-295 CNS = system: SF-295 CNS
compound,measurement,setting,value
COc1cc2c(cc1OCCCOc1ccc(-c3cc4ccccc4c4ccccc34)cc1)N=C[C@@H]1CCCN1C2=O,GI50,A498 renal,0.894 µM
same,TGI,A498 renal,2.16 µM
same,GI50,A549 NSCLC,0.724 µM
same,TGI,A549 NSCLC,2.01 µM
same,GI50,ACHN renal,1.07 µM
same,TGI,ACHN renal,2.3 µM
same,GI50,BT-549 breast,0.278 µM
same,TGI,BT-549 breast,2.05 µM
same,GI50,CAKI-1 renal,0.535 µM
same,TGI,CAKI-1 renal,1.65 µM
same,GI50,CCRF-CEM leukemia,0.237 µM
same,GI50,COLO 205 colon,1.19 µM
same,TGI,COLO 205 colon,2.44 µM
same,GI50,DU-145 prostate,0.385 µM
same,TGI,DU-145 prostate,1.42 µM
same,GI50,EKVX NSCLC,1.1 µM
same,TGI,EKVX NSCLC,2.3 µM
same,GI50,HCC-2998 colon,1.21 µM
same,TGI,HCC-2998 colon,2.45 µM
same,GI50,HCT-15 colon,0.896 µM
same,TGI,HCT-15 colon,2.26 µM
same,GI50,HL-60(TB) leukemia,0.171 µM
same,TGI,HL-60(TB) leukemia,0.393 µM
same,GI50,HOP-92 NSCLC,0.334 µM
same,TGI,HOP-92 NSCLC,1.53 µM
same,GI50,HS 578T breast,0.645 µM
same,TGI,HS 578T breast,3.11 µM
same,GI50,HT29 colon,0.899 µM
same,TGI,HT29 colon,2.11 µM
same,GI50,IGROV1 ovarian,0.122 µM
same,TGI,IGROV1 ovarian,0.288 µM
same,TGI,K-562 leukemia,> 100 µM
same,GI50,KM12 colon,0.787 µM
same,TGI,KM12 colon,2.06 µM
same,GI50,LOX IMVI melanoma,1.02 µM
same,TGI,LOX IMVI melanoma,2.19 µM
same,GI50,MALME-3M melanoma,1.4 µM
same,TGI,MALME-3M melanoma,2.74 µM
same,GI50,MCF7 breast,0.172 µM
same,TGI,MCF7 breast,0.971 µM
same,GI50,MDA-MB-231 breast,0.291 µM
same,TGI,MDA-MB-231 breast,1.27 µM
same,GI50,MDA-MB-435,0.343 µM
same,TGI,MDA-MB-435,1.31 µM
same,GI50,MOLT-4 leukemia,0.186 µM
same,TGI,MOLT-4 leukemia,0.432 µM
same,GI50,NCI-H226 lung,1.28 µM
same,TGI,NCI-H226 lung,2.73 µM
same,GI50,NCI-H23 lung,1.41 µM
same,TGI,NCI-H23 lung,2.74 µM
same,GI50,NCI-H460 lung,1.04 µM
same,TGI,NCI-H460 lung,2.21 µM
same,GI50,NCI/ADR-RES ovarian,0.716 µM
same,TGI,NCI/ADR-RES ovarian,1.98 µM
same,GI50,OVCAR-3 ovarian,0.252 µM
same,TGI,OVCAR-3 ovarian,0.786 µM
same,GI50,OVCAR-4 ovarian,0.815 µM
same,TGI,OVCAR-4 ovarian,2.21 µM
same,GI50,OVCAR-5 ovarian,0.487 µM
same,TGI,OVCAR-5 ovarian,0.995 µM
same,GI50,OVCAR-8 ovarian,0.425 µM
same,TGI,OVCAR-8 ovarian,1.98 µM
same,GI50,RXF 393 renal,0.24 µM
same,TGI,RXF 393 renal,0.624 µM
same,GI50,SF-268 CNS,0.86 µM
same,TGI,SF-268 CNS,2.08 µM
same,GI50,SF-539 CNS,1.58 µM
same,TGI,SF-539 CNS,2.92 µM
same,GI50,SK-MEL-2 melanoma,0.0467 µM
same,TGI,SK-MEL-2 melanoma,0.521 µM
same,GI50,SK-MEL-28 melanoma,0.555 µM
same,TGI,SK-MEL-28 melanoma,1.38 µM
same,GI50,SK-MEL-5 melanoma,1.24 µM
same,TGI,SK-MEL-5 melanoma,2.49 µM
same,GI50,SK-OV-3 ovarian,1.6 µM
same,TGI,SK-OV-3 ovarian,3.26 µM
same,GI50,SN12C renal,0.518 µM
same,TGI,SN12C renal,1.84 µM
same,GI50,SNB-19 CNS,1.16 µM
same,TGI,SNB-19 CNS,2.37 µM
same,GI50,SNB-75 CNS,0.261 µM
same,TGI,SNB-75 CNS,1.41 µM
same,GI50,SR leukemia,0.222 µM
same,TGI,SR leukemia,0.717 µM
same,GI50,SW-620 colon,0.513 µM
same,TGI,SW-620 colon,1.86 µM
same,GI50,T-47D breast,0.0887 µM
same,TGI,T-47D breast,0.598 µM
same,GI50,TK-10 renal,0.646 µM
same,TGI,TK-10 renal,1.79 µM
same,GI50,U251 CNS,0.91 µM
same,TGI,U251 CNS,2.11 µM
same,GI50,UACC-257 melanoma,1.57 µM
same,TGI,UACC-257 melanoma,3.1 µM
same,GI50,UACC-62 melanoma,0.632 µM
same,TGI,UACC-62 melanoma,2.09 µM
same,GI50,UO-31 renal,0.169 µM
same,TGI,UO-31 renal,0.593 µM
COc1cccc(CC2C(=O)NC(=O)NC2=O)c1,GI50,SR leukemia,39.5 µg/mL
O=C(c1ccccc1)C(Br)C(Br)c1ccccc1 (centres undefined),GI50,786-0 renal,15.2 µM
same,TGI,786-0 renal,28.7 µM
same,GI50,A498 renal,12.8 µM
same,TGI,A498 renal,25.5 µM
same,GI50,A549 NSCLC,18.3 µM
same,TGI,A549 NSCLC,39.2 µM
same,GI50,ACHN renal,1.86 µM
same,TGI,ACHN renal,3.38 µM
same,GI50,BT-549 breast,12.8 µM
same,TGI,BT-549 breast,25.6 µM
same,GI50,CAKI-1 renal,1.6 µM
same,TGI,CAKI-1 renal,3.34 µM
same,GI50,COLO 205 colon,1.92 µM
same,TGI,COLO 205 colon,3.5 µM
same,GI50,DU-145 prostate,3.08 µM
same,TGI,DU-145 prostate,9.63 µM
same,GI50,EKVX NSCLC,14.6 µM
same,TGI,EKVX NSCLC,32.7 µM
same,GI50,HCC-2998 colon,13.3 µM
same,TGI,HCC-2998 colon,26.3 µM
same,GI50,HCT-116 colon,1.73 µM
same,TGI,HCT-116 colon,3.32 µM
same,GI50,HCT-15 colon,2.96 µM
same,TGI,HCT-15 colon,9.76 µM
same,GI50,HOP-92 NSCLC,2.53 µM
same,TGI,HOP-92 NSCLC,6 µM
same,GI50,IGROV1 ovarian,2.94 µM
same,TGI,IGROV1 ovarian,12.2 µM
same,GI50,KM12 colon,3.5 µM
same,TGI,KM12 colon,11.3 µM
same,GI50,LOX IMVI melanoma,1.82 µM
same,TGI,LOX IMVI melanoma,3.41 µM
same,GI50,M14 melanoma,2.01 µM
same,TGI,M14 melanoma,4.12 µM
same,GI50,MALME-3M melanoma,2.02 µM
same,TGI,MALME-3M melanoma,4.31 µM
same,GI50,MCF7 breast,1.79 µM
same,TGI,MCF7 breast,7.85 µM
same,GI50,MDA-MB-231 breast,14 µM
same,TGI,MDA-MB-231 breast,29 µM
same,GI50,MDA-MB-435,2.91 µM
same,TGI,MDA-MB-435,11.2 µM
same,GI50,NCI-H226 lung,2.94 µM
same,TGI,NCI-H226 lung,7.66 µM
same,GI50,NCI-H23 lung,10.4 µM
same,TGI,NCI-H23 lung,23.8 µM
same,GI50,NCI-H460 lung,13.8 µM
same,TGI,NCI-H460 lung,29.5 µM
same,GI50,NCI-H522 lung,1.18 µM
same,TGI,NCI-H522 lung,2.62 µM
same,GI50,NCI/ADR-RES ovarian,2.92 µM
same,TGI,NCI/ADR-RES ovarian,9.55 µM
same,GI50,OVCAR-3 ovarian,1.99 µM
same,TGI,OVCAR-3 ovarian,3.65 µM
same,GI50,OVCAR-4 ovarian,1.66 µM
same,TGI,OVCAR-4 ovarian,3.08 µM
same,GI50,OVCAR-5 ovarian,14.5 µM
same,TGI,OVCAR-5 ovarian,27.7 µM
same,GI50,OVCAR-8 ovarian,4.12 µM
same,TGI,OVCAR-8 ovarian,13.3 µM
same,GI50,PC-3 prostate,18.3 µM
same,TGI,PC-3 prostate,33.4 µM
same,GI50,RPMI-8226 leukemia,3.44 µM
same,TGI,RPMI-8226 leukemia,8.11 µM
same,GI50,RXF 393 renal,1.89 µM
same,TGI,RXF 393 renal,3.51 µM
same,GI50,SF-268 CNS,9.37 µM
same,TGI,SF-268 CNS,24.8 µM
same,GI50,SF-295 CNS,11.9 µM
same,TGI,SF-295 CNS,27.7 µM
same,GI50,SF-539 CNS,10.7 µM
same,TGI,SF-539 CNS,22.6 µM
same,GI50,SK-MEL-2 melanoma,10.7 µM
same,TGI,SK-MEL-2 melanoma,24.6 µM
same,GI50,SK-MEL-28 melanoma,3.59 µM
same,TGI,SK-MEL-28 melanoma,13 µM
same,GI50,SK-MEL-5 melanoma,12.6 µM
same,TGI,SK-MEL-5 melanoma,25.6 µM
same,GI50,SK-OV-3 ovarian,15.3 µM
same,TGI,SK-OV-3 ovarian,28.8 µM
same,GI50,SN12C renal,10.4 µM
same,TGI,SN12C renal,22.6 µM
same,GI50,SNB-19 CNS,12.7 µM
same,TGI,SNB-19 CNS,25.7 µM
same,GI50,SNB-75 CNS,12.1 µM
same,TGI,SNB-75 CNS,25.6 µM
same,GI50,SW-620 colon,1.69 µM
same,TGI,SW-620 colon,3.28 µM
same,GI50,T-47D breast,2.59 µM
same,TGI,T-47D breast,6.26 µM
same,GI50,TK-10 renal,1.59 µM
same,TGI,TK-10 renal,3.01 µM
same,GI50,U251 CNS,8.15 µM
same,TGI,U251 CNS,20.9 µM
same,GI50,UACC-257 melanoma,3.2 µM
same,TGI,UACC-257 melanoma,8.04 µM
same,GI50,UACC-62 melanoma,11.8 µM
same,TGI,UACC-62 melanoma,24.2 µM
same,GI50,UO-31 renal,1.85 µM
same,TGI,UO-31 renal,3.87 µM
